The text below walks through data of the supplement of paper PMC11061612.

What all share (assay): Bliss excess, mean over the matrix (fraction); higher = more synergy
One assay deals with ACHN (Kidney Carcinoma). In outline: (§1)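 Cell lines in DMEM/F12 or RPMI with 10% FBS were plated in 1536-well plates, held 24 hours at 37°C, 5% CO2, then given two-drug dose matrices for 72 hours (DMSO typically 0.2%). Viability was read by CellTiter-Glo 2.0 luminescence and scaled as inhibition from 0 (vehicle wells) to 1 (blank wells). Combination Emax is the second-highest inhibition in the matrix; Bliss excess is observed combination effect minus expected EA + EB − EA·EB, EA and EB being single-agent effects.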

Assay [1] concerns AMO-1 (Plasma Cell Myeloma). In short, it runs like this:
as §1

Assay [2] concerns BT-549 (Breast Carcinoma). In short, it runs like this:
as §1

Assay [3] has as its system Caov-4 (Ovarian Carcinoma). In outline: as §1
The test system of assay [4] is EFM-19 (Breast Carcinoma). In short, it runs like this:
as §1

For a further assay, the system named is EW-24 (Ewing's Sarcoma). In outline:
as §1

For assay [5], the system named is EoL-1-cell (Acute Myeloid Leukemia). In outline: as §1
In assay [6] the test system is Hs-766T (Pancreatic Carcinoma). In outline:
as §1

Assay [7] deals with LU-65 (Non-Small Cell Lung Carcinoma). In short, it runs like this:
as §1

Assay [8] has as its system MIA-PaCa-2 (Pancreatic Carcinoma). In outline: as §1
Assay [9] has as its system MLMA (Other Blood Carcinomas). In outline: as §1
The test system of the next assay is NB69 (Neuroblastoma). In outline: as §1
For assay [10], the system named is NCI-H358 (Lung Adenocarcinoma). In outline:
as §1

Assay [11] relates to NCI-H727 (Other Solid Carcinomas). In short, it runs like this:
as §1

Assay [12] concerns PANC-04-03 (Pancreatic Carcinoma). In short, it runs like this: as §1
Assay [13] deals with RF-48 (B-Cell Non-Hodgkin's Lymphoma). In outline: as §1
Assay [14] concerns SW13 (Other Solid Carcinomas). In outline: as §1
The next assay has as its system TGW (Neuroblastoma). In outline: as §1
The next assay relates to UACC-62 (Melanoma). In outline: as §1
In another assay the test system is YH-13 (Glioblastoma). In outline: as §1

Structures are written as SMILES.

On to `Cc1cc2ncnn2cc1Nc1ncc2c(n1)n(C1CCOCC1)c(=O)n2C` [AZD7648] + C[C@@H]1COCCN1C2=NC(=NC(=C2)C3(CC3)[S@](=N)(=O)C)C4=C5C=CNC5=NC=C4 [AZD6738] (first compound max 10 µM, 7x7, partner max 10 µM), for which the Bliss excess with ACHN (Kidney Carcinoma) was -0.0316; in assay [1] it was -0.0184; in assay [2], 0.0207; in [3], 0.0087; in assay [4], 0.0323; in the assay on EW-24 (Ewing's Sarcoma) it was -0.0023. Also, the Bliss excess in assay [5] was -0.0123; in assay [6], 0.0552; in assay [7], -0.0392; in [8] it was -0.0254; in assay [9], -0.0289; in the assay on NB69 (Neuroblastoma), 0.0172. Further, the Bliss excess in [10] came to 0.0099; in assay [11], 0.0381; in assay [12] it was 0.0123; in assay [13], 0.0071; in assay [14], 0.0707; with TGW (Neuroblastoma), 0.0388. For the same compound, the Bliss excess with UACC-62 (Melanoma) was found to be 0.0529; in the assay on YH-13 (Glioblastoma) it was 0.0821.

On to `Cc1cc2ncnn2cc1Nc1ncc2c(n1)n(C1CCOCC1)c(=O)n2C` [AZD7648] + O=C(c1cc(Cc2n[nH]c(=O)c3ccccc23)ccc1F)N1CCN(C(=O)C2CC2)CC1 [Olaparib] (first compound max 10 µM, 7x7, partner max 10 µM), for which the Bliss excess was -0.0243 in the assay on ACHN (Kidney Carcinoma); -0.0231 in assay [1]; -0.0487 in assay [2]; -0.015 in assay [3]; -0.0652 in [4]; -0.0449 in the assay on EW-24 (Ewing's Sarcoma). For the same compound, the Bliss excess in [5] was 0.0142; in assay [6], -0.0491; in assay [7], -0.0146; in [8], -0.0246; in assay [9] it was -0.0087; with NB69 (Neuroblastoma), -0.0397. In addition, the Bliss excess in [10] is -0.0179; in [11], -0.0641; in assay [12], -0.0369; in assay [13], 0.0158; in [14], -0.0454; in the assay with TGW (Neuroblastoma), -0.0248. For the same compound, the Bliss excess is -0.0219 in the assay with UACC-62 (Melanoma) and -0.0272 with YH-13 (Glioblastoma).

Regarding `Cc1nc(Nc2ncc(C(=O)Nc3c(C)cccc3Cl)s2)cc(N2CCN(CCO)CC2)n1` [Dasatinib] + CC(=O)Nc1cccc(-n2c(=O)n(C3CC3)c(=O)c3c(Nc4ccc(I)cc4F)n(C)c(=O)c(C)c32)c1 [Trametinib] (first compound max 2 µM, 7x7, partner max 1 µM), the Bliss excess is -0.0707 in the assay with ACHN (Kidney Carcinoma); 0.058 in assay [1]; -0.0945 in [2]; -0.125 in assay [3]; -0.0957 in [4]; -0.0569 in the assay on EW-24 (Ewing's Sarcoma). In addition, the Bliss excess was -0.0157 in [5]; 0.0971 in assay [6]; -0.112 in [7]; 0.156 in [8]; -0.0324 in [9]; 0.0099 in the assay with NB69 (Neuroblastoma). The Bliss excess in assay [10] was 0.004; in [11], -0.0357; in assay [12] it was 0.0163; in assay [13], -0.0369; in assay [14], -0.0548; with TGW (Neuroblastoma), -0.0621. In addition, the Bliss excess is 0.0064 in the assay on UACC-62 (Melanoma) and -0.0698 in the assay with YH-13 (Glioblastoma).

Regarding `COc1cc2ncnc(Nc3ccc(F)c(Cl)c3)c2cc1OCCCN1CCOCC1` [Gefitinib] + CC(C)n1c(=O)n(C)c2cnc3cc(F)c(-c4ccc(OCCCN5CCCCC5)nc4)cc3c21 [AZD1390] (first compound max 10 µM, 7x7, partner max 0.3 µM), the Bliss excess in the assay on ACHN (Kidney Carcinoma) was -0.0829; in assay [1], -0.0485; in assay [2] it was -0.0549; in assay [3], -0.0591; in assay [4], -0.0722; in the assay with EW-24 (Ewing's Sarcoma), -0.0759. Also, the Bliss excess was -0.0385 in assay [5]; -0.0908 in assay [6]; -0.0614 in assay [7]; -0.0307 in assay [8]; -0.0358 in [9]; -0.0615 with NB69 (Neuroblastoma). Moreover, the Bliss excess in [10] is -0.0493; in [11], -0.108; in [12], -0.0853; in assay [13], -0.0283; in [14], -0.0233; with TGW (Neuroblastoma), -0.0438. The Bliss excess in the assay on UACC-62 (Melanoma) was -0.0358; in the assay on YH-13 (Glioblastoma), -0.0848.

In the case of `COc1cc2c(cc1OCCCCCOc1cc3c(cc1OC)C(=O)N1C=C(C)C[C@H]1C=N3)N=C[C@@H]1CC(C)=CN1C2=O` [SG3199] + O=C(c1cc(Cc2n[nH]c(=O)c3ccccc23)ccc1F)N1CCN(C(=O)C2CC2)CC1 [Olaparib] (first compound max 0.001 µM, 7x7, partner max 10 µM), the Bliss excess in the assay on ACHN (Kidney Carcinoma) was -0.0192; in assay [1], -0.0342; in [2] it was -0.041; in [3], -0.0267; in assay [4], -0.063; in the assay on EW-24 (Ewing's Sarcoma), -0.0272. Besides, the Bliss excess in assay [5] was -0.0348; in assay [6], -0.0433; in [7], 0.0047; in assay [8] it was -0.0415; in [9], -0.0269; in the assay with NB69 (Neuroblastoma), -0.0102. Besides, the Bliss excess is -0.0353 in assay [10]; -0.0726 in assay [11]; -0.046 in assay [12]; 0.0133 in assay [13]; -0.0184 in assay [14]; -0.0446 with TGW (Neuroblastoma). For the same compound, the Bliss excess in the assay on UACC-62 (Melanoma) is -0.0663; in the assay with YH-13 (Glioblastoma) it was -0.0282.

As for `N#Cc1cnc(Nc2cc(NC[C@H]3CNCCO3)c(C(F)(F)F)cn2)cn1` [SRA737] + C=CCn1c(=O)c2cnc(Nc3ccc(N4CCN(C)CC4)cc3)nc2n1-c1cccc(C(C)(C)O)n1 [AZD1775] (first compound max 10 µM, partner max 1 µM), the Bliss excess in the assay with ACHN (Kidney Carcinoma) was -0.0285; in assay [1], 0.0986; in [2], 0.0819; in [3] it was 0.0532; in assay [4] it was -0.044; in the assay with EW-24 (Ewing's Sarcoma), 0.0488. Besides, the Bliss excess in [5] was -0.0097; in [6], 0.0161; in assay [7], 0.0233; in assay [8] it was 0.139; in assay [9], -0.0114; in the assay on NB69 (Neuroblastoma), 0.163. In addition, the Bliss excess is -0.0155 in assay [10]; 0.0694 in assay [11]; 0.0182 in assay [12]; -0.0171 in assay [13]; 0.0091 in assay [14]; -0.0382 with TGW (Neuroblastoma). Moreover, the Bliss excess with UACC-62 (Melanoma) stood at 0.0048; in the assay with YH-13 (Glioblastoma), 0.0804.

Take `N#Cc1cnc(Nc2cc(NC[C@H]3CNCCO3)c(C(F)(F)F)cn2)cn1` [SRA737] + CCc1c2c(nc3ccc(O)cc13)-c1cc3c(c(=O)n1C2)COC(=O)[C@]3(O)CC [SN-38] (first compound max 10 µM, 7x7, partner max 0.3 µM): the Bliss excess in the assay on ACHN (Kidney Carcinoma) is -0.0867; in assay [1], -0.0225; in [2], -0.0463; in assay [3], -0.0488; in assay [4], 0.107; with EW-24 (Ewing's Sarcoma), -0.0859. For the same compound, the Bliss excess in assay [5] was -0.0375; in assay [6] it was -0.0095; in assay [7] it was -0.0191; in assay [8], 0.0599; in assay [9] it was -0.061; with NB69 (Neuroblastoma) it was -0.0351. The Bliss excess was 0.0057 in [10]; 0.0316 in assay [11]; -0.0583 in assay [12]; -0.0047 in assay [13]; -0.0192 in assay [14]; 0.0191 in the assay with TGW (Neuroblastoma). For the same compound, the Bliss excess was 0.0364 in the assay with UACC-62 (Melanoma) and 0.0231 in the assay on YH-13 (Glioblastoma).
